The values that follow are results of earlier work, collected in US20030153801A1, “Compositions of cyclooxygenase-2 selective inhibitors and radiation for inhibition or prevention of cardiovascular disease” (Pharmacia Corporation, priority 2001, published 2003).

Series [1] has as its system restenosis. The note with it: orally administered; stent implanted pig arteries.
Series [2] deals with coronary intimal proliferation. The following applies: oral administration; swine model of restenosis.
The test system of series [3] is vascular smooth muscle cells. The following applies: in vitro.
For series [4] the following is noted: single dose pretreatment, intravenous, before coronary stenting.

Consider `COc1ccc(C=CC(=O)Nc2ccccc2C(=O)O)cc1OC` [tranilast, N-(3,4-dimethoxycinnamoyl) anthranilic acid], for which the rate of restenosis entry in series [1] is “lower”.

On to `CN(C)CCCO[C@@H]1[C@H]2OC(C)(C)O[C@H]2O[C@@H]1[C@H](O)CO.Cl` [aniprilose hydrochloride], for which, in series [2], the coronary intimal proliferation result is recorded as “did not prevent”.

Turning to `COc1cc(/C=C/C(=O)CC(=O)/C=C/c2ccc(O)c(OC)c2)ccc1O` [curcumin], the “proliferation of vascular smooth muscle cells” value in series [3] is recorded as “reduced”.

Regarding `C[C@H]1C[C@@H]2[C@H]([C@@H](O)C[C@@]3(C)[C@H]2CC[C@]3(O)C(=O)CO)[C@@]2(C)C=CC(=O)C=C12` [methylpridnisolone], in series [4], the “change in minimal lumen diameter at 6 months” value is on record as “no effect”.
